The target of test [1] is T1, AChE from electrophorus electricus (EeAChE) (Electrophorus electricus, UniProt O42275).
T1 construct: Acetylcholinesterase (AChE) (EC 3.1.1.7, type VI-S from Electric Eel); purchased Sigma-Aldrich (Steinheim, Germany) type VI-S; host or cells: electric eel (natural source)
As to the kind of experiment: biochemical. The protocol: (§1) Acetylcholinesterase (AChE) (EC 3.1.1.7, type VI-S from Electric Eel), butyrylcholinesterase (BChE) (EC 3.1.1.8, from horse serum). AChE and BChE were also isolated from rabbit brain and serum, respectively.
(§2) The inhibitory activities of coumarin derivatives were measured quantitatively by Ellman's method and performed with some modifications as in Ingkaninan et al. method by using 96-microliter well plate. Series of newly synthesized coumarin derivatives were tested as AChE and BChE inhibitors. Initially, each compound was dissolved in DMSO (end concentration of DMSO was less than 1% in assay) and tested at a final concentration of 1 mM or 10 μL of DMSO (as negative control) in wells for initial screening. […] Reaction mixture comprised of 50 μL of 3 mM DTNB (5,5′-dithiobis(2-nitrobenzoic acid)) in assay buffer, 10 μL of test compound, and 10 μL of AChE (0.031 IU/mL) or BChE (0.5 IU/mL). This mixture was preincubated at 25°C for 10 min. After preincubation, enzymatic reaction was started by addition of 10 μL of 10 mM MBTCCl (butyrylthiocholine chloride) or ATCI (acetylthiocholine iodide) according to the respective enzyme and mixture was incubated again for 15 min. […] Enzyme dilution buffer consisted of 50 mM Tris-HCl containing 0.1% (w/v) BSA (pH 8). The effect of DMSO on activity of enzyme was subtracted by a negative control containing DMSO, instead of inhibitor. Each concentration was analyzed in triplicate and Ki values were calculated from IC50 values by using a nonlinear curve fitting program PRISM 5.0 (GraphPad, San Diego, California, USA).

In test [2] the target is T2, BChE from rabbit serum (rBChE) (Oryctolagus cuniculus, UniProt P21927).
T2 construct: BChE was obtained from rabbit blood serum by applying the techniques of centrifugation; from tissue; host or cells: rabbit blood serum
T2 sequence (P21927 9-581): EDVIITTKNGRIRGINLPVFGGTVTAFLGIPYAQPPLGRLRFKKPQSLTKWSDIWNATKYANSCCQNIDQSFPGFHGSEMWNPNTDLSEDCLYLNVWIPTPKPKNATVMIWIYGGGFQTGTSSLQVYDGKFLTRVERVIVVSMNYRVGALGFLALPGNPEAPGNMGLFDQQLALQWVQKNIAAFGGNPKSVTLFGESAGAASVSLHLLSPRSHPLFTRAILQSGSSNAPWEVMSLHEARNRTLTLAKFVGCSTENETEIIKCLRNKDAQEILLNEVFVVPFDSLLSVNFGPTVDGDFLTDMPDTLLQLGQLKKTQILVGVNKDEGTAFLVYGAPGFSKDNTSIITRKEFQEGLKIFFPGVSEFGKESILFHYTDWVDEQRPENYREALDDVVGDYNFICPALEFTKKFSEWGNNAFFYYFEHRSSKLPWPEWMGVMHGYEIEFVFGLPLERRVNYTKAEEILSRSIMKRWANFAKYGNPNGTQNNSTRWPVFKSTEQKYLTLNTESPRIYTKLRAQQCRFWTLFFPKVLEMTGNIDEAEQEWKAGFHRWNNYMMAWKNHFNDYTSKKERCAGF
Description: biochemical. As to the method:
as §1
(§3) AChE was isolated from rabbit brain. Heads were decapitated and brains were thawed and homogenized for 30 sec in 2.5 volumes of 1 mM EDTA, 0.32 M ice cold sucrose, 10 μM tetracain (pH7.0). The homogenates were centrifuged at 105,000 ×g for 60 min (4°C). The supernatants were removed and pellets were again homogenized in same volume of 0.2% triton phosphate buffer. After centrifugation, the supernatants were again removed and pellets were rehomogenized for 10 sec in 2.5 volumes of 1% triton phosphate buffer. […] BChE was obtained from rabbit blood serum by applying the techniques of centrifugation. The purified enzymes were stored at –80°C.
as §2

Test [3] addresses T3, rabbit AChE (rAChE), isolated from rabbit brain (Oryctolagus cuniculus, UniProt Q29499).
T3 construct: AChE was isolated from rabbit brain; from tissue; host or cells: rabbit brain
As to the kind of experiment: biochemical. As to the method: as §1, §3, §2

In test [4] the target is T4, BChE from horse serum (hBChE) (Equus caballus, UniProt P81908).
T4 construct: butyrylcholinesterase (BChE) (EC 3.1.1.8, from horse serum); purchased Sigma-Aldrich (Steinheim, Germany); host or cells: horse serum (natural source)
T4 sequence (P81908 whole entry): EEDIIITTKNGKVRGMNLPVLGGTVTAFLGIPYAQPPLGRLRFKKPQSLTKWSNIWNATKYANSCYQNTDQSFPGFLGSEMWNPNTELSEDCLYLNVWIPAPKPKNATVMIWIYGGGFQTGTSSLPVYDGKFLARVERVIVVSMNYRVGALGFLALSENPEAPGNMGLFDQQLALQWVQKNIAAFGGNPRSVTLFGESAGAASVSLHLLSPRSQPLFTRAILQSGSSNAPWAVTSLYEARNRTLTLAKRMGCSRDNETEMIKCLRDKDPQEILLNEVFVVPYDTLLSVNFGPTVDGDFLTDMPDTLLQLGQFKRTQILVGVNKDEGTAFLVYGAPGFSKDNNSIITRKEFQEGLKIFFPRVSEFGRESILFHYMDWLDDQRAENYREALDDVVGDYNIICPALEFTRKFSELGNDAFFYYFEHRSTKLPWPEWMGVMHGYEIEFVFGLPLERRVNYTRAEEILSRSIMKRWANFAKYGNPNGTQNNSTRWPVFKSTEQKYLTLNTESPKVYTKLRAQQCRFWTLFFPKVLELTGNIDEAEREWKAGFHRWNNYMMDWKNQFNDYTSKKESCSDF
Description: biochemical. Type of test: biochemical. The protocol: as §1, §2

The subject of test [5] is AChE. Description: Kinetic characterization of AChE inhibition (Lineweaver-Burk). In kind it is biochemical. Conditions: Lineweaver-Burk plots; inhibitor 0–100 nM; substrate ATCI. As to the method:
(§4) […]. […] As Km value was increasing and value of Vmax remained almost same in the presence or absence of inhibitor, indication of competitive type of inhibitory mechanism against AChE and BChE.
(§5) Kinetic characterization of AChE and BChE was performed by using Ellman's method. […]. Enzyme kinetic characterization studies were performed under same incubation conditions as described above by using ATCI and BTCCl as substrates and DTNB was used as chromophoric reagent. A parallel control with no inhibitor in the mixture was added for comparison. Each concentration was analyzed in triplicate; and Lineweaver-Burk (1/V versus 1/[S]) plot was constructed using Prism software.

The subject of test [6] is BChE. Description: Kinetic characterization of BChE inhibition (Lineweaver-Burk). In kind it is biochemical. Conditions: Lineweaver-Burk plots; inhibitor 0–5 nM; substrate BTCCl. As to the method:
as §4, §5

The mark [7] stands for this setting: mean ± SEM of three experiments, Ki calculated from IC50, substrate ATCI, read-out: EeAChE Ki ± SEM.
The mark [8] stands for this setting: rabbit serum BChE, mean ± SEM of three experiments, Ki calculated from IC50, substrate BTCCl, read-out: rBChE Ki ± SEM.
Where [9] appears, read: mean ± SEM of three experiments, Ki calculated from IC50, substrate ATCI, read-out: rAChE Ki ± SEM.
[10] abbreviates: horse serum BChE, mean ± SEM of three experiments, Ki calculated from IC50, substrate BTCCl, read-out: hBChE Ki ± SEM.

The source of these data is paper PMC3431135, “Pharmacological Evaluation and Docking Studies of 3-Thiadiazolyl- and Thioxo-1,2,4-triazolylcoumarin Derivatives as Cholinesterase Inhibitors” (ISRN Pharmacology, 2012).

SMILES strings stand for the structures. Read-outs that look alike come from different tables or passages of the source.

T3 sequence (Q29499 2-584): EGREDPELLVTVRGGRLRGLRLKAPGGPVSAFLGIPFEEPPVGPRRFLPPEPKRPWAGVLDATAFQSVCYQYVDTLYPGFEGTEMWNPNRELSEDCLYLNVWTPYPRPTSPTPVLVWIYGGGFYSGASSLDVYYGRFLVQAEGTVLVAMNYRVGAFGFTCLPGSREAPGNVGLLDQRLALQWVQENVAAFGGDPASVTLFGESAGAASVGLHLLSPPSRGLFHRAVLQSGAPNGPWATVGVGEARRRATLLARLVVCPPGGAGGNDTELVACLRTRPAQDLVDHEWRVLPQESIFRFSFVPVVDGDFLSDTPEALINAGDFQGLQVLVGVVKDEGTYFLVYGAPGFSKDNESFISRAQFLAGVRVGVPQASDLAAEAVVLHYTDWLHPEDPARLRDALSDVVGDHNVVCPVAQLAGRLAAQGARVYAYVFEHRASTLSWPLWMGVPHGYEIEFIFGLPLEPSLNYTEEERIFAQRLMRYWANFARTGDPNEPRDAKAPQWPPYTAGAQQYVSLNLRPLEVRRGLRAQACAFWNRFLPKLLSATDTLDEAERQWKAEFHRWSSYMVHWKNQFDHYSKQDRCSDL
T1 sequence (O42275 24-633): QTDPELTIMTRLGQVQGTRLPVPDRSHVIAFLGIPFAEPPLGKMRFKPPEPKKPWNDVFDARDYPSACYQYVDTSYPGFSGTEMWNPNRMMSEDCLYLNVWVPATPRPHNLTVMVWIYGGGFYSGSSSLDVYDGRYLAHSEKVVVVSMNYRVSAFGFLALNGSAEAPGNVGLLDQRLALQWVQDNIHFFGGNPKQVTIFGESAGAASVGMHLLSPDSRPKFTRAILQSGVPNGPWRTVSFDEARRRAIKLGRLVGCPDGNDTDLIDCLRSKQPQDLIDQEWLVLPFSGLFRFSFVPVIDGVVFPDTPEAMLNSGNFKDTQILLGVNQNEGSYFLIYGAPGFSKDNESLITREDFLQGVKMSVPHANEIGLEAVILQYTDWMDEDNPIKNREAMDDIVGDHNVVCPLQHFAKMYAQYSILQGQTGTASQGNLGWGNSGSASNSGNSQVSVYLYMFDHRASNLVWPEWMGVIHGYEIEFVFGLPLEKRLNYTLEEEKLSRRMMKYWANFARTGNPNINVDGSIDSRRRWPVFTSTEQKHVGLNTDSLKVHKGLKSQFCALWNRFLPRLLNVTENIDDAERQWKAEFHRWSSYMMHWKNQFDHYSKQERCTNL

As usually defined, the Ki is a dissociation constant, usually derived from enzyme kinetics or from competition with a known ligand. With `COc1ccccc1Nc1nnc(-c2cc3ccccc3oc2=O)s1` [Compound 4f, 3-(5-(2-Methoxyphenylamino)-1,3,4-thiadiazol-2-yl)-2H-chromen-2-one], the Ki was 7160 ± 10 nM in test [1] (setting [7]), 1360 ± 30 nM in test [2] (setting [8]), 81 ± 1 nM in test [3] (setting [9]) and 230 ± 10 nM in test [4] (setting [10]).

`O=c1oc2ccccc2cc1-c1nnc(Nc2cccc(Cl)c2)s1` [Compound 4b, 3-(5-(3-Chlorophenylamino)-1,3,4-thiadiazol-2-yl)-2H-chromen-2-one]: the inhibitory constant (Ki) in test [1] (setting [7]) was 280 ± 70 nM; in test [2] (setting [8]), 2260 ± 20 nM; in test [3] (setting [9]), 28 ± 2 nM; in test [4] (setting [10]) it was 540 ± 90 nM. In test [5], the “Type of inhibition of AChE” value was “competitive inhibitor”. For the same molecule, the “Type of inhibition of BChE” value in test [6] was “competitive inhibitor”.

On to `CN(C)C(=O)Oc1cccc([N+](C)(C)C)c1` [Neostigmine, neostigmine methylsulfate, reference compound], for which the inhibition constant (Ki) in test [1] turned out to be 56 ± 6 nM; in test [2], 47 ± 6 nM; in test [3] it was 48 ± 3 nM; in test [4], 60 ± 5 nM.

On to `COc1ccccc1-n1c(-c2cc3ccccc3oc2=O)n[nH]c1=S` [Compound 3f, 3-(4-(2-Methoxyphenyl)-5-thioxo-4,5-dihydro-1H-1,2,4-triazol-3-yl)-2H-chromen-2-one], for which the Ki in test [1] (setting [7]) is 4060 ± 340 nM; in test [2] (setting [8]), 690 ± 20 nM; in test [3] (setting [9]), 61 ± 5 nM; in test [4] (setting [10]), 280 ± 10 nM.

Turning to `O=c1oc2ccccc2cc1-c1nnc(Nc2ccccc2Cl)s1` [Compound 4a, 3-(5-(2-Chlorophenylamino)-1,3,4-thiadiazol-2-yl)-2H-chromen-2-one], the Ki was 5750 ± 780 nM in test [1] (setting [7]), 1390 ± 20 nM in test [2] (setting [8]), 31 ± 8 nM in test [3] (setting [9]) and 100 ± 10 nM in test [4] (setting [10]).

For `Cc1cccc(-n2c(-c3cc4ccccc4oc3=O)n[nH]c2=S)c1` [Compound 3d, 3-(5-Thioxo-4-m-tolyl-4,5-dihydro-1H-1,2,4-triazol-3-yl)-2H-chromen-2-one], the inhibition constant (Ki) is 5770 ± 310 nM in test [1] (setting [7]), 1110 ± 50 nM in test [2] (setting [8]), 82 ± 2 nM in test [3] (setting [9]) and 180 ± 20 nM in test [4] (setting [10]).

As to `COc1cccc(-n2c(-c3cc4ccccc4oc3=O)n[nH]c2=S)c1` [Compound 3g, 3-(4-(3-Methoxyphenyl)-5-thioxo-4,5-dihydro-1H-1,2,4-triazol-3-yl)-2H-chromen-2-one], the Ki in test [1] (setting [7]) is 980 ± 340 nM; in test [2] (setting [8]) it was 22100 ± 200 nM; in test [3] (setting [9]) it was 46 ± 2 nM; in test [4] (setting [10]), 7550 ± 30 nM.

Turning to `Cc1cccc(Nc2nnc(-c3cc4ccccc4oc3=O)s2)c1` [Compound 4d, 3-(5-(m-Toluidino)-1,3,4-thiadiazol-2-yl)-2H-chromen-2-one], the Ki in test [1] (setting [7]) was 28000 ± 1630 nM; in test [2] (setting [8]) it was 510 ± 10 nM; in test [3] (setting [9]) it was 17 ± 2 nM; in test [4] (setting [10]), 660 ± 10 nM.

As for `Cc1ccc(-n2c(-c3cc4ccccc4oc3=O)n[nH]c2=S)cc1` [Compound 3e, 3-(5-Thioxo-4-p-tolyl-4,5-dihydro-1H-1,2,4-triazol-3-yl)-2H-chromen-2-one], the Ki is 18400 ± 3400 nM in test [1] (setting [7]), 140 ± 50 nM in test [2] (setting [8]), 39 ± 2 nM in test [3] (setting [9]) and 130 ± 10 nM in test [4] (setting [10]).

Take `O=c1oc2ccccc2cc1-c1n[nH]c(=S)n1-c1ccc(Cl)cc1` [Compound 3c, 3-(4-(4-Chlorophenyl)-5-thioxo-4,5-dihydro-1H-1,2,4-triazol-3-yl)-2H-chromen-2-one]: the inhibition constant (Ki) in test [1] (setting [7]) is 450 ± 90 nM; in test [2] (setting [8]) it was 520 ± 30 nM; in test [3] (setting [9]), 13 ± 2 nM; in test [4] (setting [10]), 1340 ± 20 nM.

For the molecule `O=c1oc2ccccc2cc1-c1n[nH]c(=S)n1-c1cccc(Cl)c1` [Compound 3b, 3-(4-(3-Chlorophenyl)-5-thioxo-4,5-dihydro-1H-1,2,4-triazol-3-yl)-2H-chromen-2-one], the Ki in test [1] (setting [7]) was 320 ± 70 nM; in test [2] (setting [8]) it was 65700 ± 2000 nM; in test [3] (setting [9]) it was 600 ± 30 nM; in test [4] (setting [10]) it was 36 ± 3 nM. The “fold more active on hBChE than neostigmine” value in test [4] (ratio of Ki values versus neostigmine) was 2 fold.

With `COc1cccc(Nc2nnc(-c3cc4ccccc4oc3=O)s2)c1` [Compound 4g, 3-(5-(3-Methoxyphenylamino)-1,3,4-thiadiazol-2-yl)-2H-chromen-2-one], the Ki in test [1] (setting [7]) is 8260 ± 10 nM; in test [2] (setting [8]), 1520 ± 30 nM; in test [3] (setting [9]) it was 21 ± 1 nM; in test [4] (setting [10]), 340 ± 10 nM.

Regarding `O=c1oc2ccccc2cc1-c1n[nH]c(=S)n1-c1ccccc1Cl` [Compound 3a, 3-(4-(2-Chlorophenyl)-5-thioxo-4,5-dihydro-1H-1,2,4-triazol-3-yl)-2H-chromen-2-one], the inhibition constant Ki in test [1] (setting [7]) was 2420 ± 430 nM; in test [2] (setting [8]), 21400 ± 1600 nM; in test [3] (setting [9]) it was 470 ± 70 nM; in test [4] (setting [10]) it was 190 ± 10 nM.

As for `Cc1ccc(Nc2nnc(-c3cc4ccccc4oc3=O)s2)cc1` [Compound 4e, 3-(5-(p-Toluidino)-1,3,4-thiadiazol-2-yl)-2H-chromen-2-one], the Ki in test [1] (setting [7]) is 6190 ± 290 nM; in test [2] (setting [8]), 460 ± 10 nM; in test [3] (setting [9]), 561 ± 22 nM; in test [4] (setting [10]) it was 280 ± 20 nM.

As to `O=c1oc2ccccc2cc1-c1nnc(Nc2ccc(Cl)cc2)s1` [Compound 4c, 3-(5-(4-Chlorophenylamino)-1,3,4-thiadiazol-2-yl)-2H-chromen-2-one], the inhibitory constant (Ki) was 48600 ± 4400 nM in test [1] (setting [7]), 350 ± 10 nM in test [2] (setting [8]), 240 ± 21 nM in test [3] (setting [9]) and 420 ± 10 nM in test [4] (setting [10]).
